Data on 4 molecules can be found in paper PMC7815716, “Mechanistic basis of breast cancer resistance protein inhibition by new indeno[1,2-b]indoles” (Scientific Reports, 2021).

“Also recorded” adds a separate entry of the source. Read-outs that look alike come from different tables or passages of the source.

Data set [1] deals with HEK293 WT and HEK293-ABCG2 cells. Briefly: Intrinsic cytotoxicity of compounds, MTT assay. As to conditions: HEK293-ABCG2 vs HEK293 WT, 72 h, 0.1–100 µM. Type of data set: cell-based, human. The protocol:
Cell viability was evaluated with a 3-(4,5-dimethylthiazol-2-yl)-2,5-diphenyltetrazolium bromide (MTT) colorimetric assay. HEK293 WT and HEK293-ABCG2 cells were seeded into 96-well culture plates at a 1.5 × 10^4 cells/well density. After overnight incubation, the cells were treated with various concentrations of compounds (0–100 µM) for 72 h at 37 °C under 5% CO2. […] Sensitization experiments were also carried out on H460 and H460MX20 cells. For these experiments, H460 and H460MX20 cells were seeded into 96-well culture plates at 1.0 × 10^4 cells/well density. […] After the treatment, the culture medium was removed and 100 μL of a 0.5 mg.mL^−1 MTT solution was added. Cells were then incubated for 4 h at 37 °C under 5% CO2. The formazan crystals were dissolved with a solution of DMSO/ethanol (1:1) and the absorbance was measured at 570 nm using a Multiscan FC microplate reader (Thermo Scientific). The results were expressed as percentage of viable cells versus control cells (0.1% DMSO, v/v) taken as 100%.
In general terms: Formazan colour is commonly taken as a measure of viable cells.

The target of the next data set is T1, ABCC1 (MRP1) (Homo sapiens, UniProt P33527).
T1 construct: expressed in transfected cells; host or cells: BHK21
T1 sequence (P33527 whole entry): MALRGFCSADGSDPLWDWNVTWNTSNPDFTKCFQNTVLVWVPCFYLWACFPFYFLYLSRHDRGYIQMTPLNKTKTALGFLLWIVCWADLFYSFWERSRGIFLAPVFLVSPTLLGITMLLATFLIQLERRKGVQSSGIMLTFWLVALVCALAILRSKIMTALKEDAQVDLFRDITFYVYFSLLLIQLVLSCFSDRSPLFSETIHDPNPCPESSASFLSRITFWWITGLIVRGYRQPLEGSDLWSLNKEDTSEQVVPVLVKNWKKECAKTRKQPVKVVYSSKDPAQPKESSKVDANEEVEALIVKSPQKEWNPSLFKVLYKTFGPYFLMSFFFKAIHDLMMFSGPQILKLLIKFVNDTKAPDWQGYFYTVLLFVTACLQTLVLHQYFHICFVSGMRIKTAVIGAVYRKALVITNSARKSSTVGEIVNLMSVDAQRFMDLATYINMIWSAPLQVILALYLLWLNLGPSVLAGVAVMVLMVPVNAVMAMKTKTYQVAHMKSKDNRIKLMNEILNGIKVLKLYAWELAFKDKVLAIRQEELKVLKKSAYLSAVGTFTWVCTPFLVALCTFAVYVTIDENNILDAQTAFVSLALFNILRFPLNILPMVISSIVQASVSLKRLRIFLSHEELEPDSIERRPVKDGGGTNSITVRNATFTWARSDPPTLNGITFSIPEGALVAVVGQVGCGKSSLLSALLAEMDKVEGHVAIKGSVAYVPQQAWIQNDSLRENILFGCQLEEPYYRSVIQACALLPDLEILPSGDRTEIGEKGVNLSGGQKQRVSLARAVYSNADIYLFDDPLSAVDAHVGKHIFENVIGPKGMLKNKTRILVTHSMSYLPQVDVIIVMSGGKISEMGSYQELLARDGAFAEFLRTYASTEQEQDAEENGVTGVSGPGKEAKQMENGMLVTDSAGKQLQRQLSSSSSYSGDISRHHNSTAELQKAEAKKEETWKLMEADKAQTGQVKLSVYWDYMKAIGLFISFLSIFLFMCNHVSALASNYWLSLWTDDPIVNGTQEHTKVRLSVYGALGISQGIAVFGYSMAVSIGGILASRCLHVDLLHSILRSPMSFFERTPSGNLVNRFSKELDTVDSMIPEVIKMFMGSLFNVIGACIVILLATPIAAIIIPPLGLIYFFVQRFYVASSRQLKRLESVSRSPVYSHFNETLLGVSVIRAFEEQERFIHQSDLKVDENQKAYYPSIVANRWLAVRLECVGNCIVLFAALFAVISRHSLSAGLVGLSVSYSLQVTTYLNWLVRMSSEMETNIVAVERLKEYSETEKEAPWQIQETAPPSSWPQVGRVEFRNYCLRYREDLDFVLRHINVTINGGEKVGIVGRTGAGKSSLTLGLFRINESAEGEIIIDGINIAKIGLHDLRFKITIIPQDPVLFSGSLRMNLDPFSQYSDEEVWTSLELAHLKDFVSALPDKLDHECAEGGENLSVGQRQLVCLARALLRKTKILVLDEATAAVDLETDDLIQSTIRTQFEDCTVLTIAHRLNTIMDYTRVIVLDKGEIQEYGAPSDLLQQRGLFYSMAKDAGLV
The experiment in a line: ABCC1 (MRP1) calcein-AM transport inhibition in BHK21-ABCC1 cells. Type of data set: cell-based. As to conditions: 1 and 10 µM; for Inhibition of MRP1-mediated transport: calcein-AM. The protocol:
(§1) ABCG2 inhibition assays were carried out on HEK293 WT and HEK293-ABCG2 cells. Cells were seeded at the density of 1 × 10^5 cells/well in 24 well culture plates and incubated for 48 h at 37 °C under 5% CO2. Cells were treated with compounds and 10 μM of mitoxantrone for 30 min at 37 °C and 5% CO2. After incubation the cells were washed with PBS, trypsinized and resuspended in ice cold PBS. The intracellular drug fluorescence was monitored with a FACS Calibur cytometer (Becton Dickinson) using the FL4 channel, with at least 10,000 events collected. The maximal fluorescence (taken as 100%) was determined with the difference between the mean fluorescence of HEK-ABCG2 cells incubated with 0.5 μM Ko143 (ABCG2 reference inhibitor) or by using the HEK293 WT cell line as a control and cells without inhibitor (mitoxantrone alone). The percent of inhibition was determined as previously described. For bimodulation assays the cells were concomitantly treated with 10 μM of one or two combined inhibitors under similar conditions as described previously. For washing assays, cells were treated with 10 μM concentrations of compounds for 30 min. Then, the medium with the inhibitor was removed and the cells were washed with PBS and incubated only with culture medium for different periods of time (0.5 and 3 h). After incubation, cells were exposed to 5 µM mitoxantrone for 30 min, and then analyzed by flow cytometry. The percentage of transport inhibition was calculated by the following equation: %Inhibition=C-S/I-S×100 where “C” corresponds to the intracellular fluorescence of cells in the presence of the tested compounds and substrate (mitoxantrone to ABCG2, Rhodamine 123 to ABCB1 and calcein to ABCC1), “S” corresponds to the intracellular fluorescence of cells in the presence of substrate alone, and “I” corresponds to the intracellular fluorescence of cells in the presence of the substrate and reference inhibitor (Ko143 to ABCG2, GF120918 to ABCB1 and verapamil to ABCC1).
ABCB1 (P-gp) and ABCC1 (MRP1) inhibition assays were carried out on NIH3T3 WT and NIH3T3-ABCB1 or BHK21 WT and BHK21-ABCC1 cell lines. Cells were treated with 5 μM rhodamine 123 or 0.2 μM calcein-AM as substrates, and with or without GF120918 (0.5 μM) or verapamil (30 μM) as reference inhibitors, for ABCB1 and ABCC1, respectively. Compounds were assayed at 1 and 10 µM. The same procedure and calculation to determine the percentage of inhibition were used for ABCG2 inhibition assays. The intracellular fluorescence was monitored with a FACS Calibur cytometer (Becton Dickinson) using the FL1 channel.

For another data set, the target named is T2, ABCG2 (Homo sapiens, UniProt Q9UNQ0).
T2 sequence (Q9UNQ0 1-655): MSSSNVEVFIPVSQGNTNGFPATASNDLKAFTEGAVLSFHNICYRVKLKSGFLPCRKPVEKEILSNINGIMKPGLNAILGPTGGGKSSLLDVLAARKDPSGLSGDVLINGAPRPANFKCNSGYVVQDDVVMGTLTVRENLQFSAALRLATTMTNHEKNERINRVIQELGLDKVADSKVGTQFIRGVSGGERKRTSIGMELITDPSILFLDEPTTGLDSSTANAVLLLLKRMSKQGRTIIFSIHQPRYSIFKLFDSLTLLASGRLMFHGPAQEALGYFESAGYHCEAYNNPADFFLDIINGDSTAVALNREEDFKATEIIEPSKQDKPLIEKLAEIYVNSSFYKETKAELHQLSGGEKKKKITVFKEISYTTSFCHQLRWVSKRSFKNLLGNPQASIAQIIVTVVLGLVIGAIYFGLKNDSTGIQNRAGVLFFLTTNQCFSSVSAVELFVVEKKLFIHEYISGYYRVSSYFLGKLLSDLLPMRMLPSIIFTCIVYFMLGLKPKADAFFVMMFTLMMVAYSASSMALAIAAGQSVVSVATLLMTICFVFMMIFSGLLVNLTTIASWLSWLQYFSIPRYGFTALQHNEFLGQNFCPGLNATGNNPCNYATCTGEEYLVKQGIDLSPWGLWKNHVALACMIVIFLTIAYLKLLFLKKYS
Briefly: Inhibition of ABCG2-mediated mitoxantrone efflux (flow cytometry). Type of data set: cell-based. Also noted: expressed in transfected cells; host or cells: HEK293. As to conditions: for inhibition at 30 min: human, probe mitoxantrone (10 µM), from IC50 fitted curves, HEK293-ABCG2, mitoxantrone, 100% = Ko143 0.5 µM, read-out: IMAX (%) ± SD, maximal inhibition percentage; for Class of inhibitor by IMAX (complete or partial): threshold at 80% on IMAX values. The protocol: as §1
On the technique in general: In flow cytometry, cells or beads pass a laser one at a time.

On to `COc1ccccc1CCn1c2c(c3c(O)cc(C)cc31)C(=O)c1ccccc1-2` [6a, 9-Hydroxy-7-methyl-5-(2-methoxyphenethyl)-5H-indeno[1,2-b]indol-10(5H)-one], for which the “Intrinsic cytotoxicity in ABCG2-transfected versus control cells (cross-resistance)” value in data set [1] is “no apparent cross-resistance”. Further, the “Selectivity toward ABCG2 versus P-gp and MRP1” value at ABCC1 (MRP1) is recorded as “specific ABCG2 inhibitor; also recorded: completely selective to ABCG2”. Also, at ABCG2, the IC50 (commonly the midpoint of a concentration-inhibition curve) was 0.21 ± 0.03 µM and the “Class of inhibitor by IMAX (complete or partial)” value was “partial (partial (IMAX ≤ 80% of ABCG2 inhibition))”. For the same molecule, the inhibition (in general, the drop in the measured response relative to a control, in per cent) at 30 min on ABCG2 (HEK293-ABCG2 cells) worked out at 62.6 ± 2.3%.

`COc1cccc(CCn2c3c(c4c(O)cccc42)C(=O)c2ccc(O)cc2-3)c1` [6d, 3,9-Dihydroxy-5-(3-methoxyphenethyl)indeno[1,2-b]indol-10(5H)-one]: the melting point (commonly the temperature of the solid-liquid transition) was determined as 198 °C. Besides, in data set [1], the “Intrinsic cytotoxicity in ABCG2-transfected versus control cells (cross-resistance)” value was “mild collateral sensitivity (CS) effect”. In addition, at ABCC1 (MRP1), the “Inhibition of MRP1-mediated transport” value is listed as “partially inhibited”. The IC50 against ABCG2 was 0.19 ± 0.04 µM. In addition, on ABCG2 (HEK293-ABCG2 cells), the inhibition at 30 min came to 84.8 ± 2.51%.

`COc1ccc2[nH]cc(CCn3c4c(c5c(O)cccc53)C(=O)c3ccccc3-4)c2c1` [6c, 9-Hydroxy-5-(2-(5-methoxy-1H-indol-3-yl)ethyl)indeno[1,2-b]indol-10(5H)-one] returned a melting point of 95 °C. Moreover, the “Intrinsic cytotoxicity in ABCG2-transfected versus control cells (cross-resistance)” value in data set [1] was “mild collateral sensitivity (CS) effect”. The “Inhibition of MRP1-mediated transport” value at ABCC1 (MRP1) is given as “partially inhibited”. This molecule returned a half-inhibitory concentration (IC50) on ABCG2 of 0.48 ± 0.1 µM. Further, on ABCG2 (HEK293-ABCG2 cells), the inhibition at 30 min was determined as 90.5 ± 8.07%.

`COc1cc2c(cc1OC)-c1c(c3c(n1CCc1ccccc1)CC(C)CC3=O)C2=O` (stereo not drawn) [5e, 2,3-Dimethoxy-7-methyl-5-phenethyl-5,6,7,8-tetrahydroindeno[1,2-b]indole-9,10-dione]: the melting point turned out to be 235 °C. Moreover, the “Intrinsic cytotoxicity in ABCG2-transfected versus control cells (cross-resistance)” value in data set [1] is “no apparent cross-resistance”. For the same molecule, the “Inhibition of MRP1-mediated transport” value on ABCC1 (MRP1) is listed as “partially inhibited”. On ABCG2 (HEK293-ABCG2 cells, mitoxantrone 10 µM, 30 min, read-out: IC50 (µM) ± SD, inhibition of ABCG2-mediated mitoxantrone efflux), the IC50 was 0.15 ± 0.08 µM. Further, the inhibition at 30 min at ABCG2 (HEK293-ABCG2 cells) came to 36.9 ± 1.16%. For the same molecule, the “Class of inhibitor by IMAX (complete or partial)” value at ABCG2 is “partial (partial (IMAX ≤ 80% of ABCG2 inhibition))”.
